In brackets after ≈: the same amount, converted by molar mass.
How the values were obtained:
[1] = Human liver microsome (HLM) clearance assay; format: in vitro ADME; details: human liver microsomes 0.5 mg/mL, NADPH 1 mM, 0.5 μM compound, 40 min
Procedure: Example 63: Human Liver Microsome (HLM) Clearance Assay
Samples were taken out before addition of NADPH, and at 5, 10, 20 and 40 minutes thereafter and protein precipitation using cold acetonitrile with added internal standard was performed prior to centrifugation and sample analysis using compound specific LCMS/MS methods. Control incubations in buffer and without NADPH were performed in the same manner. Compound depletion was determined and apparent clearance (CLapp) was calculated.

[2] = Solubility assay; format: physicochemical; details: aqueous buffer, kinetic from dmso stock; 0.067 M phosphate buffer pH 6.5, 24 hours shaking, from 10 mM DMSO stock
Procedure: After centrifugation, the supernatant was analyzed by HPLC-UV. The solubility was defined as the concentration of the test substance in the selected solvent. It was determined by correlation with an external standard calibration curve.

[3] = biological target: T1, recombinant IL-17AA (Homo sapiens, UniProt Q16552); assay: Inhibition of recombinant IL-17AA-induced SEAP reporter gene activity in HEK-Blue IL-17 cells; format: cell-based; details: recombinant IL-17A 2 ng/ml, overnight
T1 construct: purchased R&D Systems 7955-IL
T1 sequence (Q16552 24-155): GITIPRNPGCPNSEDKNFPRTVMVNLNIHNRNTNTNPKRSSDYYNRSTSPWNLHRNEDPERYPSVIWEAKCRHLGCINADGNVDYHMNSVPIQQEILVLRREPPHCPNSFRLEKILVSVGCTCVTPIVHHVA
Procedure: Example 62: Inhibition of Recombinant IL-17AA-Induced SEAP Reporter Gene Activity in HEK-Blue™ IL-17 Cells
The assay was run according to the protocol provided by InvivoGen. Briefly, the HEK-Blue™ IL-17 cells (Invivogen, cat #hkb-il17) were suspended in the complete culture medium and seeded in a 96 well plate in a volume of 80 μl in a density of 50,000 cells per well the day before the assay. 10 μl of a solution of the test compounds were added in a serial gradient dilution to the cells followed by the addition of 10 μl IL-17A (R&D Systems cat #7955-IL) in a final concentration of 2 ng/ml. The plate was incubated overnight. The QUANTI-Blue™ solution was used to determine the SEAP activity; 180 μl QUANTI-Blue™ solution and 20 μl of the supernatant from the cell plate were mixed and incubated for 1 hour at 37 degrees Celsius. SEAP levels were measured using a spectrophotometer at 650 nm.

Row | HLM Clapp [1] [mL/min/kg] | solubility at 24 h [2] [µg/mL] | EC50 [3] [nM] | Compound
1 | <8 | 45 (≈ 86.4 µM) | 17 | Cc1cc(-c2ccc(NC(=O)[C@@H](NC(=O)c3ccnn3C(C)C)C(C3CC3)C3CC3)nc2F)c(C)[n+]([O-])c1 [Example 3, N-[(1S)-1-(dicyclopropylmethyl)-2-[[5-(2,5-dimethyl-1-oxido-pyridin-1-ium-3-yl)-6-fluoro-2-pyridyl]amino]-2-oxo-ethyl]-2-isopropyl-pyrazole-3-carboxamide]
2 | 10 | 14 (≈ 23.9 µM) | 100 | Cc1c(-c2ccc(NC(=O)[C@@H](NC(=O)c3ccnn3C(C)C)C(C3CC3)C3CC3)nc2F)cc(S(C)(=O)=O)c[n+]1[O-] [Example 58, N-[(1S)-1-(dicyclopropylmethyl)-2-[[6-fluoro-5-(2-methyl-5-methylsulfonyl-1-oxido-pyridin-1-ium-3-yl)-2-pyridyl]amino]-2-oxo-ethyl]-2-isopropyl-pyrazole-3-carboxamide]
3 | <9 | 29 (≈ 54.6 µM) | 46 | Cc1c(-c2ccc(NC(=O)[C@@H](NC(=O)c3ccnn3C(C)C)C(C3CC3)C3CC3)nc2F)cc(C#N)c[n+]1[O-] [Example 59, N-[(1S)-1-[[5-(5-cyano-2-methyl-1-oxido-pyridin-1-ium-3-yl)-6-fluoro-2-pyridyl]carbamoyl]-2,2-dicyclopropyl-ethyl]-2-isopropyl-pyrazole-3-carboxamide]
